Among the test systems are HOP-62 NSCLC; HOP-92 NSCLC; NCI-H226 lung; SF-295 CNS; SF-539 CNS; SW-620 colon; U251 CNS; HCT-116 colon; MDA-MB-435.
What all share (assay): NCI tumour cell line growth inhibition, 48 h

“And” between values parts separate entries of the source, which are not always exact repeats. Equal entries are not always repeated.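 Compound exposure: 48 hours, 5 concentrations, 96-well plates. GI50 marks 50% less growth. TGI: total growth inhibition.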

Among the data in PubChem BioAssay (NCI) are TGI and GI50 values, retold here.

Turning to `N#Cc1ccccc1C(Cl)(Cl)c1cnccn1`, the TGI is above 100 µM in the assay with HOP-62 NSCLC; 65.4 µM in the assay with HOP-92 NSCLC; above 100 µM in the assay on NCI-H226 lung; above 100 µM in the assay with SF-295 CNS; above 100 µM in the assay on SF-539 CNS; above 100 µM with SW-620 colon. For the same compound, in the assay with U251 CNS, the TGI was above 100 µM.

Consider `CC(=O)N/N=C1\CC(C)(C)C2CCC1C2` (stereo unspecified), for which the TGI in the assay with HCT-116 colon, in the assay with HOP-62 NSCLC, with HOP-92 NSCLC, with SF-295 CNS, in the assay with SF-539 CNS and in the assay on SW-620 colon was above 100 µM in each case. This compound also registered a TGI in the assay on U251 CNS above 100 µM.

With `COC/C=C\COC`, the TGI in the assay on HCT-116 colon, in the assay on HOP-62 NSCLC, with HOP-92 NSCLC, in the assay on NCI-H226 lung, in the assay on SF-295 CNS and with SW-620 colon was above 100 µM throughout. In addition, in the assay with U251 CNS, the TGI was above 100 µM.

On to `N/N=C1\C(=O)N(C2CCCCCC2)C(=O)C1C(=O)NC1CCCCCC1` (stereo unspecified), for which the TGI is above 10 µM with HOP-62 NSCLC; 41.6 µM with HOP-92 NSCLC; above 100 µM with SF-295 CNS; 56.1 µM in the assay on SF-539 CNS; above 100 µM in the assay with SW-620 colon; 31.7 µM with U251 CNS.

Turning to `COc1ccc(S(=O)(=O)N2CCN(C(=O)c3ccc(-c4ccccc4)cc3)CC2C(=O)NO)cc1` (stereo unspecified), the GI50 with HCT-116 colon was 2.92 µM and 25.5 µM; with HOP-92 NSCLC, above 100 µM; with NCI-H226 lung it was 5.2 µM and 20.7 µM; in the assay on SF-295 CNS, 3.85 µM and 25.7 µM; with SF-539 CNS, 1.98 µM. Further, the TGI with HOP-92 NSCLC was above 100 µM; with NCI-H226 lung, 12.5 µM and 88.9 µM; in the assay on SF-295 CNS it was 12.5 µM and > 100 µM; in the assay on SF-539 CNS, 4.22 µM; with U251 CNS, 12.5 µM and > 100 µM.

Turning to `CCc1ccc(NC(=O)NC(=O)c2ccccc2[N+](=O)[O-])cc1Oc1ncc(Cl)cn1`, the TGI with HCT-116 colon is 3.62 µM; in the assay on HOP-62 NSCLC, 75.3 µM; with HOP-92 NSCLC, above 100 µM; with MDA-MB-435 it was 0.0332 µM; in the assay with NCI-H226 lung, 0.0796 µM; in the assay with SW-620 colon, above 100 µM. In the assay with U251 CNS, this compound displayed a TGI above 100 µM.

For the compound `CN(C)CCNc1ccc(CO)c2sc3ccc(O)cc3c(=O)c12`, the TGI with HCT-116 colon turned out to be 9.71 µM; with HOP-62 NSCLC, 4.23 µM; with HOP-92 NSCLC, 7.35 µM; in the assay with MDA-MB-435, 4.34 µM; in the assay with NCI-H226 lung, 8.48 µM; in the assay with SF-295 CNS, 12.1 µM. Further, the TGI with SF-539 CNS was determined as 6.9 µM; in the assay with SW-620 colon it was 10.5 µM; in the assay with U251 CNS it was 7.46 µM.

As for `CC(Oc1ccc2c(-c3ccccc3)cc(=O)oc2c1)C(=O)O` (stereo unspecified), the TGI in the assay with HCT-116 colon, in the assay on HOP-62 NSCLC, in the assay on HOP-92 NSCLC, with NCI-H226 lung, with SF-295 CNS and in the assay on SF-539 CNS was above 100 µM throughout. Also, the TGI in the assay with SW-620 colon and in the assay on U251 CNS was above 100 µM each time.

For `CCC(=O)c1c(NOC2OCC(OC(C)=O)C(OC(C)=O)C2OC(C)=O)nc(OC)n(C)c1=O` (stereo unspecified), the TGI with HCT-116 colon, in the assay with HOP-62 NSCLC, in the assay on HOP-92 NSCLC, in the assay with NCI-H226 lung, in the assay with SF-295 CNS and with SF-539 CNS was above 100 µM throughout. In addition, the TGI in the assay with SW-620 colon and in the assay with U251 CNS was above 100 µM each time.

Take `COc1ccc(NC(=O)/C(=C/c2ccccc2)C(C)=O)cc1`: the TGI is 32.3 µM in the assay on HOP-62 NSCLC; 29.6 µM in the assay with HOP-92 NSCLC; 96.9 µM in the assay with NCI-H226 lung; 28.6 µM with SF-295 CNS; 28.7 µM in the assay with SF-539 CNS; 35.1 µM with SW-620 colon. In the assay on U251 CNS, this compound gave a TGI of 29.4 µM.

With `CCC1CC2C(=O)N(c3ccccc3)C(=O)C2c2[nH]c3ccccc3c21` (stereo unspecified), the TGI is 33.8 µM in the assay on NCI-H226 lung, 29.8 µM in the assay on SF-295 CNS, above 100 µM in the assay on SW-620 colon and above 100 µM with U251 CNS.

On to `CC1/C=C/[C@@]2(C)CCC(C(C)(C)O)C2C(O)C[C@](C)(O)/C=C/C1` (stereo partly specified), for which the TGI in the assay on HCT-116 colon is above 100 µM; with HOP-62 NSCLC, above 100 µM; in the assay on HOP-92 NSCLC, above 100 µM; in the assay with NCI-H226 lung, 52 µM; in the assay on SF-295 CNS, above 100 µM; with SF-539 CNS, above 100 µM. Also, the TGI in the assay with SW-620 colon and with U251 CNS was above 100 µM throughout.

As to `COc1ccc(OC)c(NC(=O)CCC/C(CC(=O)c2ccc(O)c(OC)c2)=N\Nc2nnc(C)n2N)c1`, the TGI in the assay with HOP-62 NSCLC, in the assay on HOP-92 NSCLC, in the assay on NCI-H226 lung, in the assay on SF-295 CNS, in the assay with SF-539 CNS and in the assay with SW-620 colon was above 100 µM throughout. In the assay on U251 CNS, this compound registered a TGI above 100 µM.

As for `CC(C)(C)c1cc(C(O)(C(F)(F)F)C(F)(F)F)c2c(c1)C(C(F)(F)F)(C(F)(F)F)OC(C)(C(C)(C)C)N2` (stereo unspecified), the TGI stood at 13.4 µM in the assay on HCT-116 colon; 8.53 µM in the assay with NCI-H226 lung; 16.9 µM in the assay with SF-295 CNS; 44.6 µM in the assay on SW-620 colon; 10.9 µM with U251 CNS.

Turning to `Cc1ccccc1NC(=O)c1cc(-c2ccc([N+](=O)[O-])cc2)nc(=S)[nH]1`, the TGI with HCT-116 colon, with HOP-62 NSCLC, in the assay with HOP-92 NSCLC, in the assay on NCI-H226 lung, with SF-295 CNS and in the assay with SF-539 CNS was above 100 µM in each case. Also, the TGI with SW-620 colon and in the assay with U251 CNS was above 100 µM in each case.

Turning to `Cc1ccc(NC(=O)CCc2nc(N)nc(N)c2-c2ccccc2)cc1C`, the TGI with HCT-116 colon, with HOP-62 NSCLC, in the assay on HOP-92 NSCLC, with NCI-H226 lung, in the assay with SF-295 CNS and in the assay on SF-539 CNS was above 100 µM in each case. In addition, the TGI with SW-620 colon and with U251 CNS was above 100 µM throughout.

For `C=C(CC(NC(=O)c1ccc(C(CC)Cc2cnc3nc(N)nc(N)c3n2)cc1)C(=O)O)C(=O)O` (stereo unspecified), the TGI in the assay with HCT-116 colon was above 100 µM; with HOP-62 NSCLC, 0.742 µM; with NCI-H226 lung, above 100 µM; with SF-539 CNS it was above 100 µM; in the assay with U251 CNS, above 100 µM.
